US7696201B2, “Modulators of muscarinic receptors” (Vertex Pharmaceuticals Incorporated, priority 2006, dated 2010)

What was measured:
Assay type in all cases: cell-based
M1 muscarinic receptor = biological target: T1, M1 muscarinic receptor (Homo sapiens, UniProt P11229); test: Functional mobilization of intracellular calcium (FLIPR), M1-CHO cells; conditions: for Emax: 100% efficacy is the maximum response obtained with the Carbachol control; for M1 Activity: CHO cells expressing M1, calcium mobilization
T1 construct: expressed in transfected cells; host or cells: CHO (M1-CHO)
T1 sequence (P11229 1-460): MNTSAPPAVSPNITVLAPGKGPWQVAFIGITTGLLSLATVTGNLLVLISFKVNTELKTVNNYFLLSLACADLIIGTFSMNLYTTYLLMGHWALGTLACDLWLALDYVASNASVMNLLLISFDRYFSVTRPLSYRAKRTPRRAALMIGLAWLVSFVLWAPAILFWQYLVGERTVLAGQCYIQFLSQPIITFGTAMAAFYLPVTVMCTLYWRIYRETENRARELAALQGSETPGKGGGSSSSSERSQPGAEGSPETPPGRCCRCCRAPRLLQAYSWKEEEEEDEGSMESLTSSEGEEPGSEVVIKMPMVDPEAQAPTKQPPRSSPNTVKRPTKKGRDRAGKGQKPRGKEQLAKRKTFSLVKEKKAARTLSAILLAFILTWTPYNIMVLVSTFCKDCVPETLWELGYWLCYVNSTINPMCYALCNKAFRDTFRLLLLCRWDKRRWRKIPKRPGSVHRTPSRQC
Protocol: (§1) Functional Mobilization of Intracellular Calcium to Determine Muscarinic Receptor Activity:
(§2) CHO cells expressing muscarinic receptors (M1 to M5) are grown as monolayers in tissue culture flasks at 37° C. in a humidified atmosphere containing 5% CO2 and passaged every 3-5 days. The growth media is Dulbecco's modified eagles medium (DMEM, Gibco Cat# 12430-054), containing 25 mM Hepes and supplemented with Fetal Bovine Serum (Hyclone, cat# SH30071.03), 0.1 mM of MEM non-essential amino acids (GIBCO, Cat# 11140-050), 1 mM MEM Sodium Pyruvate (GIBCO Cat# 11360-070) and 100 units/ml of Penicillin G and 100 μg/ml of Streptomycin (GIBCO Cat# 15140-122). The recombinant muscarinic receptor cell lines are grown under antibiotic pressure with media containing 25 μg/ml zeocin and 500 μg/ml G418 (M1-CHO), 4 μg/ml puromycin, 50 μg/ml zeocin and 2.5 μg/ml blasticidin (M2 and M4-CHO) or 50 μg/ml zeocin and 4 μg/ml puromycin (M3 and M5-CHO).
(§3) Cells are harvested at 80-90% confluence using Versene (GIBCO Cat# 15040-066), collected by centrifugation and seeded 18-24 hours prior to running the calcium assay at a density of 5,000-10,000 cells/well in […], clear-bottomed 384-well plates (BD Biocoat, poly-D-lysine, Cat#356663). The day of the experiment, the cells are washed with a plate washer (Bioteck Instruments, ELX 405) using Bath 1 buffer (140-mM NaCl, 4.5-mM KCl, 2-mM CaCl2, 1-mM MgCl2, 10-mM Hepes-Na, 10-mM Glucose, pH 7.4, with NaOH) containing 1 mM Probenecid. Next, the calcium dye Fluo-3 (25 μl/well of Fluo-3 AM at 4 μM, Molecular Probes F-1241, in Bath 1 buffer containing 1 mM Probenecid) is added to the 25 μl of Bath 1 remaining in each well after the plate wash and the dye is loaded at 37° C. in the tissue culture incubator for 60-90 min. The fluorescent dye is removed using the plate washer with Bath 1 containing 1 mM Probenecid, leaving 25 μl/well of this solution after the wash. Alternatively, cells can be loaded with the calcium indicator from Molecular Devices (Calcium 3 Assay Reagents, Cat # R7181) adding 5 μl of a 5× solution dye in Bath 1 containing 1 mM Probenecid (10 ml per dye flask cat# R7182 to generate a solution 20×) to 20 μl of the same buffer. After loading for 60 min, the experiment can be run without having to remove the dye.
(§4) Compounds are prepared at a 2× fold concentration in a 96-well plate (round bottom, Costar Corning cat# 3656), by reconstituting the pre-spotted compounds in bath 1 containing 1 mM probenecid. The final concentration DMSO is 0.5%, and the amount of DMSO is normalized across the assay plate. To determine an agonist action of the compounds on muscarinic receptors, the reconstituted compounds are added (25 μl compound/well) to the cell assay plate (containing 25 μl/well) using the multi-channel robotic system of the FLIPR 3 Instrument (Molecular Devices, Sunnyvale, Calif.). To determine a functional inhibitory action of the compounds on muscarinic receptors, the reconstituted compounds are added (25 μl compound/well) to the assay plate and pre-incubated for 15 min prior to adding 25 μl of Carbachol at 3× the EC80 for each muscarinic subtype. Alternatively, the compounds can be co-applied simultaneously with the agonist. In both assay modes, the fluorescence is recorded for 60 sec (excitation wavelength is […] and emission wavelength 540 nm) using the FLIPR 3 instrument.
(§5) The potency, efficacy and selectivity of the muscarinic compounds were evaluated by screening the compound activity across the whole family (M1 to M5 cells). Compounds were also screened for activity on other proteins such as other GPCRs and ion channels to determine selectivity on M4 receptors.
(§6) Examples of activities and efficacies of the muscarinic compounds of formulae (I, Ia, Ib, Ic, and Id) on modulating M1 and M4 receptors are shown below in Table 3. […]

M2 muscarinic receptor = biological target: T2, M2 muscarinic receptor (Homo sapiens, UniProt P08172); test: Functional mobilization of intracellular calcium (FLIPR), M2-CHO cells; conditions: for Emax: 100% efficacy is the maximum response obtained with the Carbachol control; for M2 Activity: CHO cells expressing M2, calcium mobilization
T2 construct: expressed in transfected cells; host or cells: CHO (M2-CHO)
T2 sequence (P08172 1-466): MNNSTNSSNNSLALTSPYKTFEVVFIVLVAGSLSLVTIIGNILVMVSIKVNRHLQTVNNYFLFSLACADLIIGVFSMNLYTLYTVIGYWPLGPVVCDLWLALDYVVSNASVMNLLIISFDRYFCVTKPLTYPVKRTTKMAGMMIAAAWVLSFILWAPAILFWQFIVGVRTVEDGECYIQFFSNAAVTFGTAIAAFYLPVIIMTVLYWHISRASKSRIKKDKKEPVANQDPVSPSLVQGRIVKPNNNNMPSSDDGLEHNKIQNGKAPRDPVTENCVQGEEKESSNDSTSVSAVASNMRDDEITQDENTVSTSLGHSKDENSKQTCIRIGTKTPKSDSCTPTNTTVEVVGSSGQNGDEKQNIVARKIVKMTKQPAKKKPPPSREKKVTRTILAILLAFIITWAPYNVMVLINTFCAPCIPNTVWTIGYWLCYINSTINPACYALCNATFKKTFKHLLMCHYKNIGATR
Protocol: as §1, §2, §3, §4, §5, §6

M3 muscarinic receptor = biological target: T3, M3 muscarinic receptor (Homo sapiens, UniProt P20309); test: Functional mobilization of intracellular calcium (FLIPR), M3-CHO cells; conditions: for Emax: 100% efficacy is the maximum response obtained with the Carbachol control; for M3 Activity: CHO cells expressing M3, calcium mobilization
T3 construct: expressed in transfected cells; host or cells: CHO (M3-CHO)
Protocol: as §1, §2, §3, §4, §5, §6

M4 muscarinic receptor = biological target: T4, M4 muscarinic receptor (Homo sapiens, UniProt P08173); test: Functional mobilization of intracellular calcium (FLIPR), M4-CHO cells; conditions: for Emax: 100% efficacy is the maximum response obtained with the Carbachol control; for M4 Activity: CHO cells expressing M4, calcium mobilization
T4 construct: expressed in transfected cells; host or cells: CHO (M4-CHO)
T4 sequence (P08173 1-479): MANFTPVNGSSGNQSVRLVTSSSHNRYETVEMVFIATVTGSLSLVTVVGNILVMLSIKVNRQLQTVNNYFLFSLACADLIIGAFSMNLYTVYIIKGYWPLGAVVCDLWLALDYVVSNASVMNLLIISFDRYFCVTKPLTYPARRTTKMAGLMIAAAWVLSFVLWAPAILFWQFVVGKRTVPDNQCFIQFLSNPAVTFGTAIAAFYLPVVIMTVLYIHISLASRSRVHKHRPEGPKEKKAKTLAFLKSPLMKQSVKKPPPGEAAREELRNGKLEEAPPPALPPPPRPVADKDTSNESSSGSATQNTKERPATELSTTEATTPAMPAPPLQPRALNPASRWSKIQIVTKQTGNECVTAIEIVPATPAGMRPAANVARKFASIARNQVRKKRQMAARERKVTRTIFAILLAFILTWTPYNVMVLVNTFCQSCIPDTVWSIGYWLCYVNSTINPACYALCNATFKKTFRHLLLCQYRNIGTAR
Protocol: as §1, §2, §3, §4, §5, §6

T3 sequence (P20309 whole entry): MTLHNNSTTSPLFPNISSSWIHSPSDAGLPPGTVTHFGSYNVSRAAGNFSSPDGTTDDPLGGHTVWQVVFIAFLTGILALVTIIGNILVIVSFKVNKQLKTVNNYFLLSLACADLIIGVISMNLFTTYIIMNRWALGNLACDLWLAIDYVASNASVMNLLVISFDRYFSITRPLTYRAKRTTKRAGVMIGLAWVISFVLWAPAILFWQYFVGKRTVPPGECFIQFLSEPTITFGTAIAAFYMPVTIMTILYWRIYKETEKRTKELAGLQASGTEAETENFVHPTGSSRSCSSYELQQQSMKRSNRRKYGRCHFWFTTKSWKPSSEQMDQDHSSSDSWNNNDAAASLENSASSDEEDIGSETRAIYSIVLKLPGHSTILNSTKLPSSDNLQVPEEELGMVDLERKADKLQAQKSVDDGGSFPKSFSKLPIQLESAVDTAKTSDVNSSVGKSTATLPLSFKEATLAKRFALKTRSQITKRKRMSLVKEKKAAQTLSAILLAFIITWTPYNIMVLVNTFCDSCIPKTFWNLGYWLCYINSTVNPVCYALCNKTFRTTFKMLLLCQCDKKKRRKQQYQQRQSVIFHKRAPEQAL

Structure (SMILES)	Emax (M1 muscarinic receptor) [%]	M1 Activity (M1 muscarinic receptor)	Emax (M2 muscarinic receptor) [%]	M2 Activity (M2 muscarinic receptor)	Emax (M3 muscarinic receptor) [%]	M3 Activity (M3 muscarinic receptor)	Emax (M4 muscarinic receptor) [%]	M4 Activity (M4 muscarinic receptor)
O=C1Nc2ccccc2C2(CCN(C3CCN(c4cnccn4)CC3)CC2)O1 [Compound 74, 1′-(1-(pyrazin-2-yl)piperidin-4-yl)spiro[benzo[d][1,3]oxazine-4,4′piperidin]-2(1H)-one]	> 100	+++ (activity was measured to be less than 2.0 μM)	25 to 100	+++ (activity was measured to be less than 2.0 μM)	25 to 100	+ (activity was measured to be greater than 5.0 μM)	25 to 100	+++ (activity was measured to be less than 2.0 μM)
O=C1Nc2ccccc2C2(CCN(C3CCCCCC3)CC2)O1 [Compound 5, 1′-cycloheptylspiro[benzo[d][1,3]oxazine-4,4′-piperidin]-2(1H)-one]	25 to 100	+++ (activity was measured to be less than 2.0 μM)	25 to 100	+ (activity was measured to be greater than 5.0 μM)	< 25	+ (activity was measured to be greater than 5.0 μM)	25 to 100	+++ (activity was measured to be less than 2.0 μM)
O=C1Nc2ccccc2C2(CCN(C3CCNCC3)CC2)O1 [Compound 49, 1′-(piperidin-4-yl)spiro[benzo[d][1,3]oxazine-4,4′-piperidin]-2(1H)-one]	25 to 100	+ (activity was measured to be greater than 5.0 μM)	< 25	+ (activity was measured to be greater than 5.0 μM)	< 25	+ (activity was measured to be greater than 5.0 μM)	< 25	+ (activity was measured to be greater than 5.0 μM)
CCOC(=O)N1CCC(N2CCC3(CC2)OC(=O)Nc2ccccc23)CC1 [Compound 62]	25 to 100	+++ (activity was measured to be less than 2.0 μM)	25 to 100	+++ (activity was measured to be less than 2.0 μM)	25 to 100	+++ (activity was measured to be less than 2.0 μM)	25 to 100	+++ (activity was measured to be less than 2.0 μM)
CCOC(=O)N1CCC(CN2CCC3(CC2)OC(=O)Nc2ccccc23)CC1 [Compound 13, ethyl-4-((2-oxo-1,2-dihydrospiro[benzo[d][1,3]oxazine-4,4′-piperidine]-1′-yl)methyl)piperidine-1-carboxylate]	25 to 100	+++ (activity was measured to be less than 2.0 μM)	25 to 100	+++ (activity was measured to be less than 2.0 μM)	25 to 100	+++ (activity was measured to be less than 2.0 μM)	25 to 100	+++ (activity was measured to be less than 2.0 μM)
CCON=C1CCC(N2CCC3(CC2)OC(=O)Nc2ccccc23)CC1 (centres unmarked) [Compound 3, 1′-(4-(ethoxyimino)cyclohexyl)spiro[benzo[d][1,3]oxazine-4,4′-piperidin]-2(1H)-one]	25 to 100	+++ (activity was measured to be less than 2.0 μM)	25 to 100	+++ (activity was measured to be less than 2.0 μM)	25 to 100	+++ (activity was measured to be less than 2.0 μM)	25 to 100	+++ (activity was measured to be less than 2.0 μM)
CN1C(=O)OC2(CCN(C3CCCCCC3)CC2)c2ccccc21 [Compound 65, 1′-cycloheptyl-1-methylspiro[benzo[d][1,3]oxazine-4,4′-piperidin]-2(1H)-one]	< 25	+ (activity was measured to be greater than 5.0 μM)	< 25	+ (activity was measured to be greater than 5.0 μM)	< 25	+ (activity was measured to be greater than 5.0 μM)	25 to 100	+++ (activity was measured to be less than 2.0 μM)
